Source: patent US20220267260A1, “COMPOUNDS CONTAINING A SULFONIC GROUP AS KAT INHIBITORS” (Epizyme, Inc., priority 2016, published 2022)

How the values were obtained:
[1] = molecular target: T1, KAT6A (Homo sapiens, UniProt Q92794); assay: KAT6A enzyme inhibition assay (SAMDI mass spectrometry); type: biochemical; conditions: His-TEV-KAT6A 501-784 enzyme construct
T1 construct: His-TEV tag (N, cleaved yes); made in house

[2] = molecular target: T2, KAT5 (Homo sapiens, UniProt Q92993); assay: KAT5 enzyme inhibition assay (SAMDI mass spectrometry); type: biochemical; conditions: His-TEV-FL KAT5-Flag enzyme construct
T2 construct: His-TEV tag (N, cleaved yes); made in house
T2 sequence (Q92993 with tags, fused parts or gaps): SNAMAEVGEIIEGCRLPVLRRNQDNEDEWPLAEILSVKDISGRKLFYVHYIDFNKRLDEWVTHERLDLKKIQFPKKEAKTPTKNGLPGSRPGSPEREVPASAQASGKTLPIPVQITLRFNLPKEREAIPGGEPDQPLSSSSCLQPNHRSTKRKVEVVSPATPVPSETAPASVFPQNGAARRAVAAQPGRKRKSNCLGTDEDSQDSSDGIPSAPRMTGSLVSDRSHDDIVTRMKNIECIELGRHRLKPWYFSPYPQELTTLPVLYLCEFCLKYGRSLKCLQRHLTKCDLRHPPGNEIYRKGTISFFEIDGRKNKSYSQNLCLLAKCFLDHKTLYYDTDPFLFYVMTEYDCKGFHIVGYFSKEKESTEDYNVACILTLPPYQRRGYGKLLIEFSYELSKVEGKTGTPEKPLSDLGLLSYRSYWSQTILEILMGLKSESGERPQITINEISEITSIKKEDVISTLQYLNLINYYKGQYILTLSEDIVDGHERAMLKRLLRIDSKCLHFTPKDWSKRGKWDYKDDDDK

T1 sequence (Q92794 with tags, fused parts or gaps): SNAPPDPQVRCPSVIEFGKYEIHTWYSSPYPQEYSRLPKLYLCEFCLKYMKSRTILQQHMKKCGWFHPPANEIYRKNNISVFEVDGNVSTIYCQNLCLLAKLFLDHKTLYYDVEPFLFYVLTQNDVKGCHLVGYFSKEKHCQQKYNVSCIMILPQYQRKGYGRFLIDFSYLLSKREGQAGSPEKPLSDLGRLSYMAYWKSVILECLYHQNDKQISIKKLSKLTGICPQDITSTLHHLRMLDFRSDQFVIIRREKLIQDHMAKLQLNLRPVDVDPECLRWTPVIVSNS

| IC50 [1] | IC50 [2] | Compound |
| --- | --- | --- |
| > 100 µM | > 100 µM | O=S(=O)(NNCc1ccccc1F)c1ccccc1 [Compound I-245] |
| ≤ 10 µM | ≤ 10 µM | Cc1nc(-c2cccc(F)c2)cc(C(=O)NNS(=O)(=O)CC2CCCN(C(=O)C3CCC3)C2)c1F (centres unmarked) [Compound I-291] |
| ≤ 10 µM | ≤ 10 µM | Cc1cc(-c2ccccc2)cc(C(=O)NNS(=O)(=O)C(C)C2CCCCC2)c1F (centres unmarked) [Compound I-385] |
| 10 to 50 µM | > 100 µM | Cc1cc(-c2ccccc2)cc(C(=O)NNS(=O)(=O)C2CN(CCc3ccccc3)C2)c1F [Compound I-62] |
| ≤ 10 µM | ≤ 10 µM | CC(=O)N1CCC(CS(=O)(=O)NNC(=O)c2cc(-c3ccccc3)cc(C)c2F)C1 (centres unmarked) [Compound I-335] |
| 50 to 100 µM | 10 to 50 µM | Cc1cc(-c2cccc(C(=O)OCc3ccccc3)c2)cc(C(=O)NNS(=O)(=O)CC2CCCCC2)c1F [Compound I-446] |
| > 100 µM | > 100 µM | Cc1cccc(C(=O)NNS(=O)(=O)C2CNC2)c1F [Compound I-203] |
| 10 to 50 µM | > 100 µM | Cc1cc(-c2ccccc2)cc(C(=O)NN(C)S(=O)(=O)c2ccccc2)c1F [Compound I-242] |
| 10 to 50 µM | 10 to 50 µM | O=C(NNS(=O)(=O)CC1CCCCC1)c1cc(-c2c[nH]cn2)ccc1F [Compound I-495] |
| 10 to 50 µM | 50 to 100 µM | COCCC(=O)N1CC(S(=O)(=O)NNC(=O)c2cc(-c3ccccc3)cc(C)c2F)C1 [Compound I-115] |
| ≤ 10 µM | ≤ 10 µM | CC(=O)N1CCC(CS(=O)(=O)NNC(=O)c2cc(-c3ccccc3)cc(C)c2F)CC1 [Compound I-341] |
| ≤ 10 µM | ≤ 10 µM | O=C(NNS(=O)(=O)CC1CCCN(C(=O)C2CCC2)C1)c1cc(-c2cccc(F)c2)cc(Cl)c1F (centres unmarked) [Compound I-417] |
| 10 to 50 µM | 10 to 50 µM | Cc1c(-c2ccccc2)ccc(F)c1C(=O)NNS(=O)(=O)CC(Cc1ccccc1)C(C)C (centres unmarked) [Compound I-268] |
| > 100 µM | > 100 µM | Cn1c(NNS(=O)(=O)c2ccccc2)nc2ccccc21 [Compound I-13] |
| 50 to 100 µM | 50 to 100 µM | COc1ccccc1-c1cc(C)c(F)c(C(=O)NNS(=O)(=O)C2CCCCC2)c1 [Compound I-302] |
| > 100 µM | 50 to 100 µM | Cc1cc(-c2cccc(F)c2)cc(C(=O)NNS(=O)(=O)CC2CCNCC2)c1F [Compound I-357] |
| > 100 µM | 50 to 100 µM | O=C(NCCO)c1cc(Cl)c(F)c(C(=O)NNS(=O)(=O)C2CCCCC2)c1 [Compound I-470] |

| IC50 [1] | IC50 [2] | Compound |
| --- | --- | --- |
| > 100 µM | > 100 µM | Cc1c(-c2ccccc2)ccc(F)c1C(=O)NCC(=O)NC(Cc1ccccc1)C(C)C (centres unmarked) [Compound I-387] |
| > 100 µM | > 100 µM | Cc1c(-c2ccccc2)ccc(F)c1C(=O)NNS(=O)(=O)C1CCC1 [Compound I-243] |
| 10 to 50 µM | 10 to 50 µM | CC(=O)N1CCCC(S(=O)(=O)NNC(=O)c2cc(-c3ccccc3)cc(C)c2F)C1 (centres unmarked) [Compound I-102] |
| > 100 µM | > 100 µM | O=C(NNS(=O)(=O)c1ccccc1)c1c(F)ccc2ccccc12 [Compound I-236] |
| ≤ 10 µM | ≤ 10 µM | Cc1cccc(-c2ncc(C(=O)Nc3ccccc3)[nH]2)c1F [Compound I-450] |
| 10 to 50 µM | 10 to 50 µM | COCCN1CCC(C(C)S(=O)(=O)NNC(=O)c2cc(-c3ccccc3)cc(C)c2F)CC1 (centres unmarked) [Compound I-277] |
| 10 to 50 µM | ≤ 10 µM | Cc1cccc(-c2cc(C)c(F)c(C(=O)NNS(=O)(=O)C3CCCCC3)c2)c1 [Compound I-325] |
| 50 to 100 µM | > 100 µM | Cc1cc(-c2cccc(F)c2F)cc(C(=O)NNS(=O)(=O)CC2CCCCC2)c1F [Compound I-380] |
| ≤ 10 µM | ≤ 10 µM | Cc1cccc(S(=O)(=O)NNC(=O)c2cc(-c3ccccc3)cc(C)c2F)c1 [Compound I-188] |
| > 100 µM | > 100 µM | Cc1cc(C2CCN(C)CC2)cc(C(=O)NNS(=O)(=O)C2CCCCC2)c1F [Compound I-338] |
| 10 to 50 µM | 10 to 50 µM | COCCC(=O)N1CCCC(S(=O)(=O)NNC(=O)c2cc(-c3ccccc3)cc(C)c2F)C1 (centres unmarked) [Compound I-112] |
| > 100 µM | > 100 µM | Nc1ncc(-c2ccc(-c3ccccc3)cc2F)n1S(=O)(=O)c1ccccc1 [Compound I-284] |
| > 100 µM | > 100 µM | CCS(=O)(=O)NNC(=O)c1c(F)ccc(-c2ccccc2)c1C [Compound I-228] |
| ≤ 10 µM | > 100 µM | O=C(NNS(=O)(=O)C1CCOCC1)c1cc(-c2ccc(O)cc2)cc(Cl)c1F [Compound I-459] |
| 10 to 50 µM | 10 to 50 µM | CC(=O)N1CCC(S(=O)(=O)NNC(=O)c2cc(-c3ccccc3)cc(C)c2F)CC1 [Compound I-94] |
| > 100 µM | > 100 µM | COCc1cc(Cl)c(F)c(C(=O)NNS(=O)(=O)C2CCOCC2)c1 [Compound I-453] |
| ≤ 10 µM | ≤ 10 µM | Cc1cc(-c2ccccc2)cc(C(=O)NNS(=O)(=O)c2cccc(C(=O)N(C)C)c2)c1F [Compound I-255] |
